Experimental findings from a melting point compilation (Tetko et al.; mined from patent text by program, amines drawn as free bases though some values may be those of a salt) are described below.

Where only a bound is given, the exact number is not on record here.

One may read the melting point as the temperature of the solid-liquid transition. As for `COc1cc(N)c(Cl)cc1C(=O)NCC1CCN(CCCCNC(=O)c2cccc3ccccc23)CC1`, the melting point fell in the range of 138 to 141 °C.

As to `Cc1ccc(=O)n(-c2cccc(C(F)(F)F)c2)c1`, the melting point was determined as 95 °C. Regarding `Nc1ccccc1N1CCN(C=O)CC1`, the melting point was 129 to 133 °C. In the case of `O=C1Nc2cccc(-c3ccoc3)c2C12COc1cc3c(cc12)OCO3` (stereo not drawn), the melting point was 230 to 231 °C.

In turn, `CN1CCN(c2ccc(C(=O)N3CCCCc4ccccc43)c(Cl)c2)CC1` gave a melting point of 138 to 140 °C.

As for `CCCc1nc(C(=O)C(C)(C)C)c(C#N)[nH]1`, the melting point is 176 to 178 °C. Regarding `O=C(O)C1=Cc2ccccc2SC1C(F)(F)F` (stereo not drawn), the melting point fell in the range of 187 to 190 °C.

In turn, `Cc1oc(-c2ccccc2)nc1COc1ccc(Cn2cc(CCCCC(=O)O)c(-c3ccccc3)n2)cc1` yielded a melting point of 109 to 110 °C. Turning to `COC(=O)c1c(O)c2ccccc2n1-c1ccc(OC)cc1`, the melting point was in the range of 153 to 155 °C. In turn, `O=C(O)CC(Br)C(Br)c1ccc(-c2ccccc2)cc1` (stereo not drawn) gave a melting point of 200 to 203 °C. For `COc1ccc(Br)c(C(=O)NNS(=O)(=O)c2ccccc2)c1`, the melting point is 150 to 152 °C. `CCn1nc2oc(CO)c(C)c2c1C` returned a melting point of 124 to 126 °C. `CC(C)NC1=NS(=O)(=O)c2ccc(CC#N)cc2N1` had a melting point of 195 to 203 °C. For `CCOC(=O)CC[C@H](NC1CCC(CCC2CNc3nc(NC(=O)C(C)(C)C)nc(O)c3C2)CC1)C(=O)OCC` (stereo partly drawn) the value was 160 to 170 °C. For `COC(=O)C(C)=Cc1ccc(OCCCNc2ccc(Cl)cc2)cc1`, the melting point fell in the range of 62 to 64 °C. `COC(=O)c1ccc(OCCNC(=O)C2Cc3ccccc3N2S(=O)(=O)c2ccc(-c3cccc(C(F)(F)F)c3)cc2)cc1C(F)(F)F` (stereo not drawn) came in with a melting point of 75 to 79 °C. Compound `COc1cc(Cc2cnc(NC(=O)C(C)(C)C)nc2NC(=O)C(C)(C)C)cc(OC)c1OC` returned a melting point of 153 to 154 °C. `C[C@@H](N[C@@H](Cc1c[nH]c2ccccc12)C(=O)O)[C@H](NC(=O)[C@@H](N)CC(N)=O)C(=O)O` yielded a melting point of 65 to 70 °C.

Compound `COc1cc(-c2ccc(N)cn2)cc(OC)c1OC` came in with a melting point of 154 to 156 °C. For `O=C1CCc2ccc(OCCCCN3CCCN(c4cccc(Cl)c4Cl)CC3)cc2N1`, the melting point was 88 to 89 °C.

In the case of `CC(C#CC1=C(C)C(O)C(O)CC1(C)C)=CCO` (stereo not drawn), the melting point was 115 to 117 °C. Then `Cc1c(C)c2c(c(C)c1O)CC(CCI)O2` (racemic), with 96 to 97 °C; and `CCOC(=O)C1(NC=O)Cc2cccc3c2N(CCC3)C1=O` (stereo not drawn), with 103 to 106 °C; and `CC1Sc2ccccc2N1C(=S)Nc1cccc(Cl)c1` (stereo not drawn), with 120 to 122 °C.

The compound `O=C(O)C1CN(C(=O)N(c2ccccc2)c2ccccc2)CCN1C(=O)N(c1ccccc1)c1ccccc1` (stereo not drawn) gave a melting point of 244 to 246 °C. Regarding `Cc1ccc(Oc2ccc(-n3cc(C(=O)O)nn3)cc2)c(O)c1`, the melting point was 159 to 161 °C. As to `O=C(N1CCOCC1)N1CCN(Cc2ccc3c(c2)-c2[nH]nc(-c4ccsc4)c2C3)CC1`, the melting point lay within 188 to 190 °C.

With `Cc1cc2c(Cl)cc(F)c(-c3ccc(C(F)(F)F)n(C)c3=O)c2o1`, the melting point lay in the range of 138 to 140 °C.

As to `COC(=O)CCC(=O)c1ccc(-c2ccc(Cl)cc2)o1`, the melting point was 99 to 100 °C. With `COc1c(N2CCC(n3ccnn3)C2)c(F)c(N)c2c(=O)c(C(=O)O)cn(C3CC3)c12` (stereo not drawn), the melting point was found to be 208 °C. In turn, `CCCCCCCCP(=O)(O)CCCCCCCC` returned a melting point of 84 to 86 °C.

Consider `CCC1c2cccn2-c2ccccc2N1S(=O)(=O)c1ccc(OC)c(C)c1` (stereo not drawn), for which the melting point was 124 to 126 °C. Then `CC(C)(Oc1ccc(C(=O)CN2CCN(c3ccncc3)CC2)cc1)C(=O)O`, with 163 to 167 °C; and `CCCc1c(OCCCS(=O)(=O)c2c(C(C)C)nn3ccccc23)ccc(C(C)=O)c1O`, with 170 °C; and `COc1cc(C(C)=O)cc(OC)c1OCCCN1CCC(c2noc3cc(F)ccc23)CC1`, with 107 to 108 °C.

Take `CS(=O)(=O)c1nccc(-c2nc(=O)c3ccccc3s2)n1`: the melting point was 270 °C. For `CC(C)COc1ccc(C(=O)N/C(=C\c2ccc(OCC(F)(F)F)cc2)C(=O)NCCO)cc1` the value was 176 to 178 °C; for `CCOC(=O)C(CCC#N)(C(=O)OCC)c1ccc([N+](=O)[O-])cn1`, 59.5 to 61 °C; for `OC(Cn1cncn1)(Cn1cnc(C=Cc2ccc(C(F)(F)F)cc2)n1)c1ccc(OC(F)(F)F)cc1` (stereo not drawn), 193 to 195 °C. For `CC(=O)c1ccc(NC(=O)N2CCN(c3ncnc4c(Cl)cccc34)CC2)cc1` the value was 208 to 209 °C; for `COc1ccc(/C(=C/C=C/C(=O)Oc2ccc([N+](=O)[O-])cc2)c2ccccc2)cc1`, 113 to 115 °C.

Take `CCOC(=O)n1c(C(=O)c2cccc(Cl)c2)c(NC(=O)CC)c2ccc(Cl)cc21`: the melting point lay in the range of 189 to 191 °C.

`COc1ccc(Nc2ccc(Nc3ncnc4cc(-c5ccccc5[N+](=O)[O-])sc34)cc2)cc1` registered a melting point of 228 to 237 °C.

Take `Cc1ccc(NC(=O)c2ccc(CN3CCN(C)CC3)c(C(F)F)c2)cc1Nc1nccc(-c2cncnc2)n1`: the melting point lay in the range of 206 to 207 °C.

Compound `Cc1[nH]c(C(=O)SCC(=O)O)nc1-c1cc(C(C)(C)C)c(O)c(C(C)(C)C)c1` displayed a melting point of 252 to 254 °C.

Compound `CN(C(=O)c1cnn(C)c1C(=O)Nc1ccc2nc(-c3cccnc3)nn2c1)C1CC1` gave a melting point of 237 °C.

In turn, `CC(=O)OC1CSC(Oc2cc(F)cnc2Cl)C(OC(C)=O)C1OC(C)=O` (stereo not drawn) showed a melting point of 185 °C. The compound `Oc1cc(C(O)(c2ccccc2)c2ccccc2)c2ccccc2n1` showed a melting point greater than 350 °C. Regarding `CC(C)NC(=O)c1c(OS(C)(=O)=O)cccc1C(=O)O`, the melting point lay within 56 to 59 °C.

`N#Cc1cc(C2=NOC(c3cc(Cl)cc(Cl)c3)(C(F)(F)F)C2)ccc1-n1cc(Cl)cn1` (stereo not drawn) returned a melting point of 190 to 191 °C. `CC(=O)Oc1ccc2cccc(OS(=O)(=O)C(F)(F)F)c2n1` yielded a melting point of 90 °C. Then `O=C(NC1CCN(Cc2ccccc2)CC1)c1c[nH]c2ccc(F)cc12`, with 215 to 217 °C; and `CC(=O)c1ccc(NS(=O)(=O)N(C)C)c(Oc2ccc(F)cc2F)c1`, with 80 to 82 °C. As for `O=C(O)c1cn(C2CC2)c2c(F)c(N3CCNC(CF)C3)c(F)c(F)c2c1=O` (stereo not drawn), the melting point fell in the range of 219 to 220 °C. In turn, `COC(C(C)C)C(C)(C)C(=O)Nc1ccc(Cl)cc1` (stereo not drawn) came in with a melting point of 103 to 107 °C.

As for `CCOC(=O)c1nc2c(Cl)nc3cc(C(F)(F)F)ccc3n2c1C`, the melting point lay within 182 to 183 °C. Compound `Cc1ccc(C(=O)NCCCCOc2ccc(-n3ccnc3)cc2)cc1` came in with a melting point of 128 to 130 °C. As for `O=S(=O)(c1ccccc1)c1c[nH]c2ccc(CCO)cc12`, the melting point was 55 to 60 °C. Then `Cc1ccc(-c2cc[nH]c2)cc1`, with 92 to 93 °C; and `Cc1c(NC(=O)c2ccc(OCCCCF)cc2F)ccc2cc(CN3CCCC3)cnc12`, with 140 °C.

The compound `CC1(C)CN(C2CC3(C)C(CCC4C3CCC3(C)C(C(=O)CO)CCC43)CC2O)CCO1` (stereo not drawn) showed a melting point of 184 to 186 °C. For the compound `O=c1cc(SCc2ccccc2)cco1`, the melting point is 105 to 106 °C. On to `c1ccc2c(c1)ccc1c(-c3ccncc3)[nH]nc12`, for which the melting point lay within 271 to 273 °C. `CC1(C)COc2ccc(C[C@@H](NC(=O)c3cccc4c3C=CCCC4)[C@@H](O)c3cccc(Cl)c3)cc21` (racemic): the melting point was 149 to 150 °C. `CCN1CC(SCC2CC2)(C(F)(F)F)c2cc(Cl)ccc2NC1=O` (stereo not drawn) came in with a melting point of 152 to 156 °C. Then `CCCCCCCCNC(=O)N1CCC(c2nc(N)nc3ccccc23)CC1`, with 85 to 87 °C; and `CC1(COc2ccc(OCCNCC(O)COc3ccccc3)cc2)OCCO1` (stereo not drawn), with 95 to 97 °C; and `CCSc1ccc(N)c(C(=O)O)c1`, with 97 to 100 °C. Turning to `COC(=O)Cn1nnnc1-c1cccc(C#N)c1`, the melting point was 67 to 69 °C. Regarding `Cc1ccc(C(=S)CCCCCl)cc1`, the melting point fell in the range of 87 to 89 °C. For `COc1cc(OC)nc(NC(=O)NS(=O)(=O)Cc2ccccc2S(C)(=O)=O)n1` the value was 180 to 182 °C; for `Cc1ccc(C2c3c(C)c(NC(=O)OC(C)(C)C)c(C)c(C)c3OC2(C)C)cc1` (stereo not drawn), 124 to 125 °C. The compound `Cc1nnc(-c2ccc3occ(-c4cccc(C(F)(F)F)c4)c3c2)o1` showed a melting point of 126 to 127 °C. `CCCc1nc2ccc(N)cc2n1Cc1ccccc1Cl` returned a melting point of 121 to 122 °C. Regarding `O=C1NC(=O)C(CCCc2ccc3oc(Cc4ccc5ccccc5c4)nc3c2)O1` (stereo not drawn), the melting point lay within 151 to 152 °C.

On to `N/C(=C1/Sc2ccc(Cl)cc2C1=O)c1ccccc1Cl`, for which the melting point lay in the range of 199 to 201 °C. Then `COC(=O)c1sc(N)cc1NC(C)=O`, with 162 to 163 °C; and `c1ccc(CN2CCN(CC3CCc4ccccc4O3)CC2)cc1` (stereo not drawn), with greater than 230 °C; and `COc1ccc2c(c1OCc1ccccc1)CC(C(=O)O)N(C(=O)C(c1ccc(Cl)cc1)c1ccc(Cl)cc1)C2` (racemic), with 186 to 188 °C. In turn, `CC(=O)OC[C@H]1O[C@@H](c2nc(C(N)=O)c(N)[nH]2)[C@H](OC(C)=O)[C@@H]1OC(C)=O` gave a melting point of 128 to 129 °C. For `CCCCCCCCCCCC1Cc2c(cccc2C(=O)O)N1` (racemic) the value was 105 to 108 °C; for `COC(=O)CCCC(=O)c1ccc(O)c(O)c1`, 104 to 106 °C; for `O=C1O[C@@H]2C[C@@]1(O)CC[C@H]2O`, 212 to 214 °C. `O=C(Nc1ccc(C(F)(F)F)cc1)Nc1nc(OCC(F)(F)F)cc(C(F)(F)F)n1` returned a melting point of 197 to 199 °C. `C#CCN1CCCNC1=C[N+](=O)[O-]` gave a melting point of 157 to 158 °C.

For `CCOC(=O)c1ncn(-c2nn(C)cc2Cl)c1S(N)(=O)=O`, the melting point lay within 167 to 168 °C. For `Clc1nc(-c2nc3ccccc3[nH]2)[nH]c1Cl`, the melting point amounted to 300 °C. The compound `Cc1csc(C(=O)NN)c1N` gave a melting point of 141 to 143 °C.
